Measurements from the NIST ThermoML archive (doi:10.1016/j.jct.2007.08.002).

Assay: molar heat capacity at saturation pressure

NC12CC3CC(CC(C3)C1)C2 [tricyclo(3.3.1.1:3,7)decan-1-amine]
Details | molar heat capacity [J/K/mol]
269.16 K, Crystal 2 | 252.76
271.09 K, Crystal 2 | 258.66
273 K, Crystal 2 | 272.05
274.91 K, Crystal 2 | 282.28
276.81 K, Crystal 2 | 299.57
278.68 K, Crystal 2 | 329.42
280.53 K, Crystal 2 | 365.67
282.42 K, Crystal 2 | 373.74
288.85 K, Crystal 1, Small (less than 1 g) adiabatic calorimetry | 291.09
293.37 K, Crystal 1, Small (less than 1 g) adiabatic calorimetry | 265.9
295.36 K, Crystal 1, Small (less than 1 g) adiabatic calorimetry | 265.81
297.3 K, Crystal 1, Small (less than 1 g) adiabatic calorimetry | 265.98
299.23 K, Crystal 1, Small (less than 1 g) adiabatic calorimetry | 266.56
301.17 K, Crystal 1, Small (less than 1 g) adiabatic calorimetry | 266.89
303.1 K, Crystal 1, Small (less than 1 g) adiabatic calorimetry | 267.48
305.04 K, Crystal 1, Small (less than 1 g) adiabatic calorimetry | 267.89
306.98 K, Crystal 1, Small (less than 1 g) adiabatic calorimetry | 268.56
308.92 K, Crystal 1, Small (less than 1 g) adiabatic calorimetry | 268.89
309.23 K, Crystal 1, Small (less than 1 g) adiabatic calorimetry | 268.97
310.85 K, Crystal 1, Small (less than 1 g) adiabatic calorimetry | 268.89
311.41 K, Crystal 1, Small (less than 1 g) adiabatic calorimetry | 269.47
312.79 K, Crystal 1, Small (less than 1 g) adiabatic calorimetry | 269.39
313.59 K, Crystal 1, Small (less than 1 g) adiabatic calorimetry | 269.97
314.73 K, Crystal 1, Small (less than 1 g) adiabatic calorimetry | 269.97
315.77 K, Crystal 1, Small (less than 1 g) adiabatic calorimetry | 270.14
316.67 K, Crystal 1, Small (less than 1 g) adiabatic calorimetry | 270.05
317.96 K, Crystal 1, Small (less than 1 g) adiabatic calorimetry | 270.55
318.61 K, Crystal 1, Small (less than 1 g) adiabatic calorimetry | 270.8
320.14 K, Crystal 1, Small (less than 1 g) adiabatic calorimetry | 270.97
320.55 K, Crystal 1, Small (less than 1 g) adiabatic calorimetry | 271.05
322.32 K, Crystal 1, Small (less than 1 g) adiabatic calorimetry | 271.47
324.44 K, Crystal 1, Small (less than 1 g) adiabatic calorimetry | 271.8
324.5 K, Crystal 1, Small (less than 1 g) adiabatic calorimetry | 272.13
326.39 K, Crystal 1, Small (less than 1 g) adiabatic calorimetry | 272.55
326.7 K, Crystal 1, Small (less than 1 g) adiabatic calorimetry | 272.05
328.33 K, Crystal 1, Small (less than 1 g) adiabatic calorimetry | 272.71
328.88 K, Crystal 1, Small (less than 1 g) adiabatic calorimetry | 272.88
330.27 K, Crystal 1, Small (less than 1 g) adiabatic calorimetry | 273.05
331.06 K, Crystal 1, Small (less than 1 g) adiabatic calorimetry | 273.71
332.22 K, Crystal 1, Small (less than 1 g) adiabatic calorimetry | 273.55
333.25 K, Crystal 1, Small (less than 1 g) adiabatic calorimetry | 273.88
334.16 K, Crystal 1, Small (less than 1 g) adiabatic calorimetry | 273.8
335.43 K, Crystal 1, Small (less than 1 g) adiabatic calorimetry | 274.38
336.11 K, Crystal 1, Small (less than 1 g) adiabatic calorimetry | 274.21
337.62 K, Crystal 1, Small (less than 1 g) adiabatic calorimetry | 274.79
338.05 K, Crystal 1, Small (less than 1 g) adiabatic calorimetry | 274.88
339.81 K, Crystal 1, Small (less than 1 g) adiabatic calorimetry | 275.29
340 K, Crystal 1, Small (less than 1 g) adiabatic calorimetry | 275.21
341.94 K, Crystal 1, Small (less than 1 g) adiabatic calorimetry | 275.79
342 K, Crystal 1, Small (less than 1 g) adiabatic calorimetry | 275.96
343.89 K, Crystal 1, Small (less than 1 g) adiabatic calorimetry | 276.54
344.18 K, Crystal 1, Small (less than 1 g) adiabatic calorimetry | 276.79
345.84 K, Crystal 1, Small (less than 1 g) adiabatic calorimetry | 277.2
346.37 K, Crystal 1, Small (less than 1 g) adiabatic calorimetry | 277.45
347.78 K, Crystal 1, Small (less than 1 g) adiabatic calorimetry | 277.79
348.56 K, Crystal 1, Small (less than 1 g) adiabatic calorimetry | 278.2
349.73 K, Crystal 1, Small (less than 1 g) adiabatic calorimetry | 278.37
350.75 K, Crystal 1, Small (less than 1 g) adiabatic calorimetry | 279.03
351.68 K, Crystal 1, Small (less than 1 g) adiabatic calorimetry | 278.87
352.94 K, Crystal 1, Small (less than 1 g) adiabatic calorimetry | 279.78
353.63 K, Crystal 1, Small (less than 1 g) adiabatic calorimetry | 279.37
355.12 K, Crystal 1, Small (less than 1 g) adiabatic calorimetry | 280.28
355.58 K, Crystal 1, Small (less than 1 g) adiabatic calorimetry | 280.45
357.31 K, Crystal 1, Small (less than 1 g) adiabatic calorimetry | 281.03
357.53 K, Crystal 1, Small (less than 1 g) adiabatic calorimetry | 281.03
359.47 K, Crystal 1, Small (less than 1 g) adiabatic calorimetry | 281.86
359.5 K, Crystal 1, Small (less than 1 g) adiabatic calorimetry | 282.03
361.42 K, Crystal 1, Small (less than 1 g) adiabatic calorimetry | 282.61
361.71 K, Crystal 1, Small (less than 1 g) adiabatic calorimetry | 282.53
363.37 K, Crystal 1, Small (less than 1 g) adiabatic calorimetry | 283.36
363.9 K, Crystal 1, Small (less than 1 g) adiabatic calorimetry | 283.52
365.32 K, Crystal 1, Small (less than 1 g) adiabatic calorimetry | 284.52
366.08 K, Crystal 1, Small (less than 1 g) adiabatic calorimetry | 284.69
367.27 K, Crystal 1, Small (less than 1 g) adiabatic calorimetry | 285.52
